In US10137116B2, “Benzimidazole sulfide derivatives for the treatment or prevention of tuberculosis” (priority 2015, dated 2018):
Converted amounts (≈) assume the structure as drawn. “Also recorded” adds a separate entry of the source.

Assays:
M. tuberculosis 43061 = assay: microbe, parasite or virus in culture; format: cell-based; details: Mycobacterium tuberculosis
Mtb strains = assay: MIC, summary statement for Mtb strains; format: cell-based; details: Mycobacterium tuberculosis
M. tuberculosis MB3649 = assay: microbe, parasite or virus in culture; format: cell-based; details: Mycobacterium tuberculosis
[1] = system: Mtb spontaneous-resistant mutants 1 to 3 / rMtb-L176P; format: cell-based, Mycobacterium tuberculosis
M. tuberculosis 45776 = assay: microbe, parasite or virus in culture; format: cell-based; details: Mycobacterium tuberculosis
drug resistant isolates = assay: microbe, parasite or virus in culture; format: cell-based, M. tuberculosis; details: Mycobacterium tuberculosis
M. tuberculosis 49975 = assay: microbe, parasite or virus in culture; format: cell-based; details: Mycobacterium tuberculosis
Mtb-T313A = format: cell-based, Mycobacterium tuberculosis
M. tuberculosis 59744 = assay: microbe, parasite or virus in culture; format: cell-based; details: Mycobacterium tuberculosis
M. tuberculosis MI1020 = assay: microbe, parasite or virus in culture; format: cell-based; details: Mycobacterium tuberculosis

| Compound | MIC (M. tuberculosis 43061) [µM] | MIC (Mtb strains) [µM] | MIC (M. tuberculosis MB3649) [µM] | resistance of mutants against compound [1] | MIC (M. tuberculosis 45776) [µM] | MIC (drug resistant isolates) [µM] | MIC (M. tuberculosis 49975) [µM] | activity against T313A mutant (Mtb-T313A) | MIC (M. tuberculosis 59744) [µM] | MIC (M. tuberculosis MI1020) [µM] |
| --- | --- | --- | --- | --- | --- | --- | --- | --- | --- | --- |
| Cc1c(OCC(F)(F)F)ccnc1CSc1nc2ccccc2[nH]1 [LPZS, Lanzoprazole sulfide] | 0.49 (≈ 0.173 µg/mL) | < 2 | 1.37 (≈ 0.484 µg/mL) | stable phenotypic resistance | 0.52 (≈ 0.184 µg/mL) | < 2 | 1.06 (≈ 0.375 µg/mL) | active; also recorded: does not confer high level resistance | 0.78 (≈ 0.276 µg/mL) | 0.94 (≈ 0.332 µg/mL) |
| CCc1nc2ccc(Cl)cn2c1C(=O)NCc1ccc(N2CCC(c3ccc(OC(F)(F)F)cc3)CC2)cc1 [Q203, reference compound] |  |  |  |  |  |  |  | resistant; also recorded: high level resistance |  |  |
